Assay results from PubChem BioAssay (NCI).
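Exposure lasted 48 hours, with cells grown in 96-well plates and compounds tested at five concentrations. The concentration for 50% growth inhibition is given as GI50. The concentration for full growth arrest is given as TGI.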

What was measured:
Assay in all cases: NCI anticancer screen, dose series, 48 h
HCT-116 colon = tested on: HCT-116 colon
K-562 leukemia = tested on: K-562 leukemia
KM12 colon = tested on: KM12 colon
M14 melanoma = tested on: M14 melanoma
NCI-H460 lung = tested on: NCI-H460 lung
SF-295 CNS = tested on: SF-295 CNS
SK-MEL-2 melanoma = tested on: SK-MEL-2 melanoma
SK-MEL-28 melanoma = tested on: SK-MEL-28 melanoma
SK-OV-3 ovarian = tested on: SK-OV-3 ovarian
U251 CNS = tested on: U251 CNS

| Structure (SMILES) | GI50 (HCT-116 colon) | TGI (HCT-116 colon) | GI50 (K-562 leukemia) | TGI (K-562 leukemia) | GI50 (KM12 colon) | TGI (KM12 colon) | GI50 (M14 melanoma) | TGI (M14 melanoma) | GI50 (NCI-H460 lung) | TGI (NCI-H460 lung) | GI50 (SF-295 CNS) | TGI (SF-295 CNS) | GI50 (SK-MEL-2 melanoma) | TGI (SK-MEL-2 melanoma) | GI50 (SK-MEL-28 melanoma) | TGI (SK-MEL-28 melanoma) | GI50 (SK-OV-3 ovarian) | TGI (SK-OV-3 ovarian) | GI50 (U251 CNS) | TGI (U251 CNS) |
| --- | --- | --- | --- | --- | --- | --- | --- | --- | --- | --- | --- | --- | --- | --- | --- | --- | --- | --- | --- | --- |
| COC(=O)[C@H](Cc1c[nH]c2ccccc12)NC(=O)[C@@H](OC)[C@@H]1Cc2cc3cc(OC4CC(OC5CC(O)C(O)C(C)O5)C(O)C(C)O4)c(C)c(O)c3c(O)c2C(=O)[C@H]1OC1CC(OC2CC(OC3CC(C)(O)C(O)C(C)O3)C(O)C(C)O2)C(O)C(C)O1 (stereo partly specified) | 0.00537 µM | > 16.5 µM | 0.0118 µM | > 16.5 µM | 0.00558 µM | 1.05 µM | 0.0169 µM | 0.127 µM | 0.00611 µM | > 5.24 µM | 0.0112 µM | 3.21 µM | 0.0049 µM | 0.0145 µM | 0.00424 µM | 0.0193 µM | 0.0116 µM | > 16.5 µM | 0.00642 µM | > 16.5 µM |
| COc1ccc(/C(Cl)=C(\C=O)c2ccc([N+](=O)[O-])cc2)cc1 |  |  |  | > 37.5 µM |  | 11.4 µM |  | > 74.6 µM |  | > 100 µM |  | 34.6 µM |  | 41.3 µM |  | > 93.8 µM |  | 76.7 µM |  | 19.4 µM |
| Cn1cnc([N+](=O)[O-])c1[Se]c1nc(N)nc2c1ncn2C1OC(CO)C(O)C1O (stereo unspecified) |  | > 100 µM |  | > 100 µM |  | > 100 µM |  | > 100 µM |  | > 100 µM |  | > 100 µM |  | > 100 µM |  | > 100 µM |  | > 100 µM |  | > 100 µM |
| C=C[C@H]1C[C@@H]2C[C@@H]3[C@H]4C/C=C\C(=O)NCCCC5NC(=O)C(=C(O)/C=C/[C@@H]4CC(=O)[C@H]3[C@@H]2[C@H]1C)C5=O (stereo partly specified) | 0.287 µM | 1.1 µM |  |  | 1.74 µM | 3.33 µM | 0.253 µM | 0.822 µM | 0.348 µM | 1.2 µM |  |  | 1.08 µM | 2.58 µM | 0.203 µM | 0.399 µM | 0.242 µM | 0.606 µM | 1.61 µM | 3.07 µM |
| Cn1c2ccccc2c2c3[nH]c(=O)[nH]c(=O)c3c3c4ccccc4n(C)c3c21 | 2.37 µM | 12.9 µM |  |  | 2.51 µM | > 100 µM | 2.43 µM | > 100 µM | 3.09 µM | > 100 µM | 10.5 µM | 27.8 µM | 4.5 µM | 19.7 µM | 4.5 µM | > 100 µM | 1.75 µM | 5.79 µM | 3.02 µM | 13 µM |
| CC(C)c1cc2c(O)c(c1)Cc1cc(C(C)C)cc(c1O)Cc1cc(C(C)C)cc(c1O)Cc1cc(C(C)C)cc(c1O)C2 |  | > 100 µM |  | > 100 µM |  | > 100 µM |  |  |  | > 100 µM |  | > 100 µM |  | > 100 µM |  |  |  | > 100 µM |  | > 100 µM |
